Results reported in patent publication US4155909A, “2-Alkyl nicotinoids and processes for their production” (priority 1977, dated 1979).
Several values for one entry are separate records, joined by “and”; a condition that tells them apart may be missing. Identical values can stand only once.

Columns and labels:
Aphids = experiment: Aphid spray test on replicate ivy cuttings infested with Aphids; format: in vivo; conditions: for Avg. % Dead / % Dead / Insecticidal Effectiveness: aphids; for Avg. % Dead: average of 3 replicates; for Avg. % Dead / % Dead / No. of Aphids Alive / No. of Aphids Dead: 5 ml sprayed, 18 hours; for % Dead / No. of Aphids Alive / No. of Aphids Dead: per replicate (1, 2, 3); for Insecticidal Effectiveness: as compared to nicotine (100%); for No. of Aphids Alive / No. of Aphids Dead: 100 mg in 10 ml ethanol + 40 ml water with surfactant
Protocol: A 100 mg sample of the candidate compound was dissolved in 10 ml absolute ethanol. To the solution was added 40 ml tap water containing 0.5 ml of 1% surfactant. A 5 ml sample of each solution was sprayed on to replicate ivy cuttings infested with Aphids. The results, tabulated below in Table I were recorded 18 hours following the application of the sprays. […]
(§1) In the first column, the LD50 of the compounds in mice is a measure of their mammalian toxicity. The second column illustrates the effectiveness of the candidate compounds as insecticides as compared to nicotine, whereas the third column is the ratio of insecticidal effectiveness to mammalian toxicity.

[1] = Mammalian toxicity, LD50 in mice; format: in vivo, mouse; conditions: in vivo; mouse; measure of mammalian toxicity
From the text: as §1

female house flies = experiment: Topical application to the notum of female house flies; format: in vivo; conditions: for insecticidal effectiveness in words: common houseflies, compared with nicotine; for Avg. % Dead / Percent Dead, Run 1 / Percent Dead, Run 2: house flies, 50 mg in 0.4 ml ethanol, 0.3 μl applied, 24 hours; for Avg. % Dead: average of Run 1 and Run 2
Protocol: A 50 mg sample of the candidate compound was dissolved on 0.4 ml absolute ethanol. A 0.3 μl sample of the solution was applied to the notum of female house flies which has been anesthetized with ether. Results were read twenty-four hours later.

mouse = experiment: Mammalian toxicity, LD50 in mice; format: in vivo; conditions: compared with nicotine
From the text: as §1

mammals = conditions: Haglid et al., compared with nicotine; cited from earlier work

For `Cc1ccc(C2CCCN2C)c(C)n1` (centres unmarked) [2,6-dimethylnicotine, 2,6-Dimethyl-3-(1-methyl-2-pyrrolidinyl)pyridine], the “Avg. % Dead” value (Aphids) was 6%, the “% Dead” value (Aphids; 1080 min) was 0% and 13% and 4% and the “Insecticidal Effectiveness” value (Aphids) was 6%. For the same compound, the “No. of Aphids Alive” value (Aphids) was 32 and 20 and 87, the “No. of Aphids Dead” value (Aphids) was 0 and 3 and 66 and the LD50 [1] was 41 mg/kg.
For `Cc1ncccc1C1CCCCN1` (centres unmarked) [2-methylanabasine, 2-Methyl-3-(2-piperidinyl)pyridine], the “Avg. % Dead” value (Aphids) was 52%, the “% Dead” value (Aphids; 1080 min) was 62% and 50% and 43% and the “Insecticidal Effectiveness” value (Aphids) was 52%. For the same compound, the “No. of Aphids Alive” value (Aphids) was 24 and 27 and 87, the “No. of Aphids Dead” value (Aphids) was 39 and 27 and 66 and the LD50 [1] was 15.7 mg/kg.
For `Cc1ncccc1C1CCCN1C` (centres unmarked) [2-methylnicotine, 2-Methyl-3-(1-methyl-2-pyrrolidinyl)pyridine], the “Avg. % Dead” value (Aphids) was 6%, the “% Dead” value (Aphids; 1080 min) was 4% and 5% and 8% and the “No. of Aphids Alive” value (Aphids) was 54 and 38 and 55. For the same compound, the “No. of Aphids Dead” value (Aphids) was 2 and 5, the “insecticidal effectiveness in words” value (female house flies) was “as effective an insecticide as nicotine itself” and the “Avg. % Dead” value (female house flies) was 100%. For the same compound, the “Percent Dead, Run 1” value (female house flies) was 100%, the “Percent Dead, Run 2” value (female house flies) was 100% and the “mammalian toxicity in words” value (mouse) was “lower mammalian toxicity than nicotine”.
For `Cc1ncccc1C1CCCN1` (centres unmarked) [2-methylnornicotine, 2-Methyl-3-(2-pyrrolidinyl)pyridine], the “Avg. % Dead” value (Aphids) was 3%, the “% Dead” value (Aphids; 1080 min) was 2% and 7% and 0% and the “Insecticidal Effectiveness” value (Aphids) was 3%. The “No. of Aphids Alive” value (Aphids) was 39 and 27 and 30, the “No. of Aphids Dead” value (Aphids) was 2 and 0 and the “insecticidal effectiveness in words” value (female house flies) was “only slightly less effective”. For the same compound, the “Avg. % Dead” value (female house flies) was 70%, the “Percent Dead, Run 1” value (female house flies) was 80% and the “Percent Dead, Run 2” value (female house flies) was 60%. For the same compound, the LD50 [1] was 100 mg/kg.
In the case of `Cc1ccncc1C1CCCN1C` (centres unmarked) [4-methylnicotine], the “nicotinic / pharmacological activity in words” value (mammals) is given as “little or no nicotinic activity”.
In the case of `Cc1ccc(C2CCCN2C)cn1` (centres unmarked) [6-methylnicotine], the “nicotinic / pharmacological activity in words” value (mammals) is given as “identical in pharmacological activity to nicotine itself”.
With `CN1CCC[C@H]1c1cccnc1` [l-nicotine, reference compound] the “Avg. % Dead” value (Aphids) was 100%, the “% Dead” value (Aphids) was 100% and the “No. of Aphids Alive” value (Aphids) was 0. For the same compound, the “No. of Aphids Dead” value (Aphids) was 45 and 27 and 39, the “Avg. % Dead” value (female house flies) was 100% and the “Percent Dead, Run 1” value (female house flies) was 100%. For the same compound, the “Percent Dead, Run 2” value (female house flies) was 100% and the LD50 [1] was 0.26 mg/kg.
